Assay results from US20120053235A1, “Dihydromyricetin as an IKK-beta inhibitor used for treatment of arthritis, cancer and autoimmune conditions, and other diseases or disorders” (HONG KONG BAPTIST UNIVERSITY, priority 2010, published 2012).

Key:
[1] = test system: collagen II induced arthritis in female Wistar rats; assay: Collagen II induced arthritis (CIA); assay type: in vivo
Description: Collagen II solution (collagen, 2 mg/ml in 0.05M acetic acid, Chondrex 20022, Redmond, Wash., USA) was emulsified with an equal volume of incomplete Freund's adjuvant (IFA, Chondrex 7002, Redmond, Wash., USA) at 4° C. using a high-speed homogenizer. In the experiment of CIA, DMY was encapsulated with HP-CD (1:8.48) and then dissolved in the normal saline with drug concentrations of 50 and 100 mg/kg body weight. Rats were intradermally injected at the base of the tail with 100 μl collagen/incomplete Freund's adjuvant (IFA) emulsion containing […] of collagen II by the use of a glass syringe equipped with a locking hub and a 27-G needle. On day 7 after the primary immunization, all the rats were given a booster injection of 100 μg of collagen II in IFA. On the day after the onset of arthritis (day 13), the CIA rats were exposed to a daily intraperitoneal administration of DMY (50 and 100 mg/kg) until day 30 of the study. DEX (0.1 mg/kg, one per day), MTX (3.75 mg/kg, twice per week), and indomethacin (1 mg/kg, one per day) were used as positive reference drugs. The rats were inspected daily from the onset of arthritis characterized by edema and/or erythema in the paws. The incidence and severity of arthritis were evaluated using an arthritic scoring system, and bi-hind paw volumes and body weight were measured every 2 days started on the day when the arthritic signs were firstly visible (day 13). In the arthritic scoring system, lesions (i.e., the clinical arthritic signs) of the four paws of each rat were graded from 0 to 4 according to the extent of both edema and erythema of the periarticular tissues. As such, 16 was the potential maximum of the combined arthritic scores per animal. The hind paw volumes were measured using a plethysmometer chamber (7140 UGO. Basile, Comerio, Italy) and expressed as the mean volume change of both hind paws of the rats. Body weight of the rats was monitored with a 0.1 g precision balance (Sartorius AG, Goettingen, Germany). On day 30, all rats were sacrificed with liver, spleen and thymus being collected and weighted. The organ index for a specific organ is equal to the ratio of the weight of that organ to a body weight of 100 g.

[2] = test system: ear edema induced by dinitrofluorobenzene in male ICR mice; assay: Delay-type hypersensitivity test (DNFB-induced ear edema); assay type: in vivo; details: DTHT mice, topical treatment
Description: Male mice were sensitized through topical application of 20 μl of 0.5% (v/v) dinitrofluorobenzene (DNFB) in acetone onto the shaved abdomen on days 1 and 2. Challenge was then preformed in day 6 by applying DNFB (20 μl, 0.5%, v/v) on the left inner and outer ear surfaces of mice. DMY (at doses of 0.5, 1, 2 mg/ear) and DEX (0.025 mg/ear, Sigma-Aldrich) dissolved in acetone was topically applied (20 μl) to the ears at 2nd, 24th, 48th, and 72nd hour after the challenge. The mice were sacrificed by cervical dislocation, and then the same area of the ears was punched from each animal. Spleens and thymuses were isolated and weighted. The ear edema was calculated according to the differences between the weight of the right and left ears. The control group was treated only with DNFB.

Row | SMILES | organ indexes of spleen and/or thymus ([1]; CIA rats, day 30, FIG. 10C) | body weight ([1]; CIA rats, FIG. 100D) | organ indexes of spleen and/or thymus ([1]; rat, in vivo) | body weight [2] | spleen weight ([2]; FIGS. 9B and C) | thymus weight ([2]; FIGS. 9B and C)
1 | COc1ccc2c(c1)c(CC(=O)O)c(C)n2C(=O)c1ccc(Cl)cc1 [indomethacin, reference compound] | significant reduction | significant reduction in body weight | – | – | – | –
2 | CN(Cc1cnc2nc(N)nc(N)c2n1)c1ccc(C(=O)N[C@@H](CCC(=O)O)C(=O)O)cc1 [MTX, reference compound] | – | – | significant reduction | – | – | –
3 | C[C@@H]1C[C@H]2[C@@H]3CCC4=CC(=O)C=C[C@]4(C)[C@@]3(F)[C@@H](O)C[C@]2(C)[C@@]1(O)C(=O)CO [DEX, reference compound] | – | – | significant reduction | greatly reduced | decreased | decreased
